Measurements from ChEMBL document CHEMBL1153202, “Optimization of piperidyl-ureas as inhibitors of soluble epoxide hydrolase” (Bioorg Med Chem Lett, 2010).
Converted amounts (≈) assume the structure as drawn.

How the values were obtained:
[1] = Solubility of the compound; assay type: physicochemical
[2] = Plasma concentration in Sprague-Dawley rat at 5 mg/kg, po after 4 hrs by LC-MS/MS analysis; assay type: ADME, organism-based; parameters: dose 5 mg/kg, route oral
[3] = Plasma concentration in Sprague-Dawley rat at 30 mg/kg, po after 4 hrs by LC-MS/MS analysis; assay type: ADME, organism-based; parameters: dose 30 mg/kg, route oral
[4] = Plasma concentration in Sprague-Dawley rat at 5 mg/kg, po after 1 hr by LC-MS/MS analysis; assay type: ADME, organism-based; parameters: dose 5 mg/kg, route oral
[5] = Plasma concentration in Sprague-Dawley rat at 5 mg/kg, po after 2 hrs by LC-MS/MS analysis; assay type: ADME, organism-based; parameters: dose 5 mg/kg, route oral
[6] = Plasma concentration in Sprague-Dawley rat at 5 mg/kg, po after 6 hrs by LC-MS/MS analysis; assay type: ADME, organism-based; parameters: dose 5 mg/kg, route oral

| solubility [1] [µg/mL] | concentration at 4 h [2] [nM] | concentration at 4 h [3] [nM] | concentration at 1 h [4] [nM] | concentration at 2 h [5] [nM] | concentration at 6 h [6] [µM] | Structure (SMILES) |
| --- | --- | --- | --- | --- | --- | --- |
| 3.4 (≈ 8.96 µM) | 100 |  |  |  |  | O=C(NCc1ccc(Cl)cc1Cl)N1CCC(Oc2ccccc2)CC1 |
| 174 (≈ 456 µM) | 1300 |  |  |  |  | O=C(NCc1ccc(Cl)cc1Cl)N1CCC(Oc2ncccn2)CC1 |
|  |  | 2800 |  |  |  | O=C(Nc1ccc(OC(F)(F)F)cc1)N1CCC(n2cccc2)CC1 |
|  | 3800 |  | 1700 | 2660 | 5.43 | O=C(O)c1ccc(OC2CCN(C(=O)NCc3ccc(Cl)cc3Cl)CC2)cc1 |
